The target of experiment [1] is T1, Na^+/Ca^2+ exchanger (Cavia porcellus, UniProt P48766).
T1 construct: endogenous in cells; host or cells: freshly isolated guinea pig ventricular myocytes
Kind of experiment: Na^+/Ca^2+ exchange current (INa—Ca), whole-cell patch clamp, intracellular Na^+ overload cell model. The class given is cell-based, guinea pig. Also on record: Inhibitory rate of outward INa—Ca (%) / Inhibitory rate of inward INa—Ca (%): concentration or dose not given beside the values. The settings on record: for inhibitory ratio on INa—Ca at −80 mV: inward current; for inhibitory ratio on INa—Ca at +50 mV: outward current; for effective concentration (significant inhibitory effect on reverse mode Na^+/Ca^2+ exchange): intracellular Na^+ overload; for selectivity of inhibition of outward versus inward INa—Ca: biphasic ion conditioning. An excerpt: 1. Establishment of Assaying Method for Biphasical Current Detection in Na^+/Ca^2+ Exchange System
Since the reverse mode of Na^+/Ca^2+ exchange process is one of the main mechanisms involving in ischemia/reperfusion insult, it is of great importance to establish cell model represented reverse mode Na^+/Ca^2+ exchange process for the development of drugs against ischemic injury. Therefore, we successfully established cell model of reverse mode Na^+/Ca^2+ exchange system by intracellular Na^+ dialysis technique, and recorded Na^+/Ca^2+ exchange currents by patch clamp experiment.
Internal solution contained certain concentration of NaCl was filled to the microcatheter, and ion exchange process between the cellular and internal solutions was conducted after whole cell currents were recorded by patch clamp. Na^+ contained in the internal solution was dialyzed into the cell; result in the high intracellular Na^+ concentration. After that, the cell was champed at a holding potential of −40 mV, then depolarized to +60 mV and followed by a conversely declining ramp stimuli at a speed of 80 mV·s^−1 and 2 s conditioning pulse, then repolarized to −100 mV with a frequency of 0.05 Hz. Under the stimulation protocol, current from outward to the inward direction was recorded by perfusing modified biphasical Tyrode solution (in which the outward and inward currents can be recorded simultaneously) with the addition of 1 mmol·L^−1 of BaCl2 and 2 mmol·L^−1 of CsCl to block K^+ channels, 1 μmol·L^−1 of verapamil to block L-type Ca^2+ channels, and 20 μmol·L^−1 of ouabain to block Na^+/K^+ ATPase, and 20 mmol·L^−1 of TEA to block potassium channels. The recorded inward currents were presented in a linear manner owing to the blockade of other time-dependent currents. With the increase of intracellular Na^+ level and prolongation of time, the reverse mode of Na^+/Ca^2+ exchange process was activated. […] Under such experimental conditioning, the maximum reverse mode current was recorded 3 min after cell crushed. No significant “run-down” was observed within the record period of 8 minutes. The inward and outward current were inhibited by 5 mmol·L^−1 of Ni^2+ treatment, and the experiment result in two current-voltage curves in the absence or presence of Ni^2+. The Ni^2+ sensitive current, also called electrophysiological Na^+/Ca^2+ exchange current (INa·Ca), was the minus result of two current-voltage curves. The reverse mode potential of INa—Ca was about −20 mV
Male guinea pigs weighting 250˜280 g provided by the Animal Center of the Chinese Academy of Medical Sciences were hammered and sacrificed. The chest was opened and the heart was removed quickly. Fatty tissue and pericardium were removed in a Ca^2+-free solution at 4° C., and heart was sequentially mounted on a Langendorff apparatus. First, the heart was perfused conversely via the aorta for 6 min with Ca^2+-free solution in order to wash out residual blood, then the heart expands and the color of it turns to pink. Then the heart was perfused with Ca^2+-free solution containing 0.1 mg/ml of pronase E, 0.5 mg/ml defatted bovine serum albumin (BSA) and 150 μM Ca^2+ for 2˜3 min, until the heart expanded and became soft. The atrium was removed, and the digested heart was minced with scissors, stirred in a beaker at 37° C. for 5˜10 min. The supernatant was diluted with Ca^2+-free solution containing 0.5 mg/ml BSA and 1.8 mM Ca^2+. The supernatant was placed at room temperature (20˜24° C.) for 1 hr and then subjected to the experiment. During the whole perfusion period, pressure was kept at 70 cmH2O and the temperature of solution was kept at 37° C. with continuously gassed with 95% O2 and 5% CO2.
Rod-shaped cells with clear striations and intact membrane were used. […]
For orientation: The patch-clamp technique gives a direct electrical read-out from membranes.

The subject of experiment [2] is arrhythmia caused by ischemia/reperfusion insults in anaesthetic rats. Kind of experiment: Ischemia/reperfusion arrhythmia in anaesthetic rats, intravenous injection. The settings on record: rats. The class given is in vivo, rat. An excerpt: (1) Protective Effects of the Tested Compounds on Myocardial Insults in Rats after Intravenously Injection
Arrhythmic potency induced by myocardial insults was used to assess the potential protective effect of the compounds.

Experiment [3] relates to isolated rat hearts subjected to ischemia-reperfusion (I/R). Kind of experiment: Isolated heart subjected to ischemia/reperfusion injury (arrhythmia). The settings on record: 10^−6 M; isolated heart ischemia/reperfusion. Here is the method: Based on the pre-electrophysiological cell model screening, we have compared the inhibition ratios of the outward current by reverse-transportation of Na^+/Ca^2+ exchange, and further in vitro tests on isolated rat hearts subjected to ischemia-reperfusion (I/R) were conducted. Prolongation of ventricular arrhythmic, incidence rate of ventricular extrasystole, ventricular tachycardia/ventricular fibrillation (VT/VF) were recorded to evaluate the protective actions of drugs on myocardial injury.
On the basis of above screening results obtained from electrophysiological studies, and the result from comparative study on the research of the inhibitory effect of compounds on reverse mode Na^+/Ca^2+ exchange process, 7 effective compounds were subjected to in vitro study. Among which, IMM-313, IMM-004 and IMM-132 have structures containing chlorine; IMM-127, IMM-128 and IMM-129 have structures containing fluorine; and IMM-065 has a structure containing OH. The experiment performed in the isolated heart subjected to ischemia/reprefusion insult. Prolongation of ventricular arrhythmic, incidence of ventricular extrasystole, ventricular tachycardia/ventricular fibrillation (VT/VF) were recorded in order to evaluate the protective actions of drugs on myocardial injury.

Setting [4] is: screening of 22 candidate compounds.
The mark [5] stands for this setting: 0.3 mg/Kg intravenous (femoral vein).
[6] abbreviates: Example 1 table, myocardial cell.

This is an account of results in US20060135569A1, “Use of benzisoselenazolone compounds against ischemic myocardial damage” (priority 2002, published 2006).

Marks after values point to notes of the source that are not given here.

`O=c1c2ccccc2[se]n1-c1cccnc1` [IMM-030, 2-(3-pyridyl)-1,2-benzisoselenazol-3(2H)-one]: in experiment [1] (setting [4]), the “Inhibitory rate of inward INa—Ca (%)” value was found to be 17% and the “Inhibitory rate of outward INa—Ca (%)” value is 12%.

As to `O=c1c2ccccc2[se]n1Cc1ccco1` [IMM-059, 2-(2-furanylmethyl)-1,2-benz-isoselenazol-3(2H)-one], in experiment [1] (setting [4]), the “Inhibitory rate of inward INa—Ca (%)” value is listed as 15% and the “Inhibitory rate of outward INa—Ca (%)” value is 8%.

Consider `COc1ccc(CCN(C)CCCC(C#N)(c2ccc(OC)c(OC)c2)C(C)C)cc1OC` (stereo not drawn) [Verapamil, reference compound], for which, in experiment [2] (setting [5]), the “incidence of VT, VF, VE and duration of arrhythmic” value is “all reduced”; the “latency of ventricular arrhythmic” value is listed as “significantly prolonged”.

Take `O=c1c2cc(O)ccc2[se]n1-c1ccccn1` [IMM-163, 5-hydroxy-2-(2pyridyl)-1,2-benz-isoselenazol-3(2H)-one]: in experiment [1] (setting [4]), the “Inhibitory rate of inward INa—Ca (%)” value is on record as 19% and the “Inhibitory rate of outward INa—Ca (%)” value stood at 14%.

On to `N=C(N)NC(=O)c1nc(Cl)c(N)nc1N` [Amiloride, reference compound], for which the “inhibitory ratio on INa—Ca at −80 mV” value in experiment [1] (10 μM) is 6%; in experiment [1] (30 μM) it was 15%; in experiment [1] (100 μM), 23%. The figures for the “inhibitory ratio on INa—Ca at +50 mV” value in experiment [1] (10 μM), in experiment [1] (30 μM) and in experiment [1] (100 μM) were 15%, 23% and 41%, respectively. The “effective concentration (significant inhibitory effect on reverse mode Na^+/Ca^2+ exchange)” value in experiment [1] is on record as “above 10^−5 mol·L^−1”.

In the case of `O=c1c2cc(O)ccc2[se]n1-c1ccccc1` [IMM-164, 5-hydroxy-2-phenyl-1,2-benz-isoselenazol-3(2H)-one], in experiment [1] (setting [4]), the “Inhibitory rate of inward INa—Ca (%)” value is given as 22% and the “Inhibitory rate of outward INa—Ca (%)” value is reported as 8%.

Regarding `O=c1c2cc(Cl)ccc2[se]n1-c1cccnc1` [IMM-125, 5-chloro-2-(3-pyridyl)-1,2-benz-isoselenazol-3(2H)-one], in experiment [1] (setting [4]), the “Inhibitory rate of inward INa—Ca (%)” value is on record as 14% and the “Inhibitory rate of outward INa—Ca (%)” value is 35%.

Take `O=c1c2ccccc2[se]n1-c1cccc2cccnc12` [IMM-003, 2-(8-quinolinyl)-1,2-benz-isoselenazol-3(2H)-one]: the “Inhibitory rate of outward INa—Ca (%)” value in experiment [1] (setting [4]) is 22%.

On to `CCCCC1OC(=O)c2cccc(-n3[se]c4ccccc4c3=O)c21` (stereo not drawn) [IMM-623, 2-[4-(7-n-butyl-benzo(1,2-c-di-hydrofuran-2-one))]-1,2-benz-isoselenazol-3(2H)-one], for which, in experiment [1] (setting [4]), the “Inhibitory rate of inward INa—Ca (%)” value was determined as 15% and the “Inhibitory rate of outward INa—Ca (%)” value was 11%.

For `O=c1c2cc(F)ccc2[se]n1-c1ccncc1` [IMM-129, 5-fluoro-2-(4-pyridyl)-1,2-benz-isoselenazol-3(2H)-one], in experiment [3], the “AAT: arrhythmic occurrence time, Time” value stood at 23.67 ± 3.87 min; the “VF (ventricular fibrillation) Incidence rate (%)” value came to 63%; the “VPS (ventricular premature beats) Incidence rate (%)” value came to 37.5%; the “VT (ventricular tachycardia) Incidence rate (%)” value is 75%. For the same compound, in experiment [1] (setting [6]), the “Inhibitory rate of inward INa—Ca (%)” value is 57% and the “Inhibitory rate of outward INa—Ca (%)” value is recorded as 59%. Further, in experiment [1] (setting [4]), the “Inhibitory rate of inward INa—Ca (%)” value is recorded as 57* % and the “Inhibitory rate of outward INa—Ca (%)” value is listed as 59* %.

In the case of `O=c1c2ccccc2[se]n1-c1ccncc1` [IMM-001, 2-(4-pyridyl)-1,2-benzisoselenazol-3(2H)-one], in experiment [1] (0.1 μM), the “inhibitory ratio on INa—Ca at −80 mV” value was 15% and the “inhibitory ratio on INa—Ca at +50 mV” value is 28%. Also, in experiment [1] (1 μM), the “inhibitory ratio on INa—Ca at −80 mV” value was 24% and the “inhibitory ratio on INa—Ca at +50 mV” value came out at 48%. For the same compound, in experiment [1] (10 μM), the “inhibitory ratio on INa—Ca at −80 mV” value amounted to 42% and the “inhibitory ratio on INa—Ca at +50 mV” value amounted to 66%. Moreover, in experiment [1], the “selectivity of inhibition of outward versus inward INa—Ca” value is “high selectivity” and the “effective concentration (significant inhibitory effect on reverse mode Na^+/Ca^2+ exchange)” value is listed as 10^−7 to 10^−5 mol·L^−1. For the same compound, in experiment [2] (3 mg/Kg intravenous (femoral vein)), the “incidence and duration of VT, VF, VE / ventricular arrhythmic” value was “all reduced”.

With `O=c1c2cc(Cl)ccc2[se]n1-c1ccncc1` [IMM-132, 5-chloro-2-(4-pyridyl)-1,2-benz-isoselenazol-3(2H)-one], in experiment [3], the “AAT: arrhythmic occurrence time, Time” value came out at 29.13 ± 0.69 min; the “VF (ventricular fibrillation) Incidence rate (%)” value came to 85.7%; the “VPS (ventricular premature beats) Incidence rate (%)” value was determined as 28.6%; the “VT (ventricular tachycardia) Incidence rate (%)” value came out at 85.7%. Besides, in experiment [1] (setting [6]), the “Inhibitory rate of inward INa—Ca (%)” value worked out at 14% and the “Inhibitory rate of outward INa—Ca (%)” value stood at 44%. Moreover, in experiment [1] (setting [4]), the “Inhibitory rate of inward INa—Ca (%)” value worked out at 14% and the “Inhibitory rate of outward INa—Ca (%)” value is recorded as 44* %.

On to `O=c1c2ccc(Cl)cc2[se]n1-c1ccccn1` [IMM-142, 6-chloro-2-(2-pyridyl)-1,2-benz-isoselenazol-3(2H)-one], for which, in experiment [1] (setting [4]), the “Inhibitory rate of inward INa—Ca (%)” value worked out at 57% and the “Inhibitory rate of outward INa—Ca (%)” value amounted to 46%.

Regarding `O=c1c2ccccc2[se]n1/C=C/C1N=CCN1` (stereo not drawn) [IMM-002, 2-[(3,4-dihydroimidazol-2-yl)-2-ethenyl]-1,2-benz-isoselenazol-3(2H)-one], in experiment [1] (setting [4]), the “Inhibitory rate of inward INa—Ca (%)” value worked out at 34% and the “Inhibitory rate of outward INa—Ca (%)” value is 32* %.

Consider `O=c1c2cc(Cl)ccc2[se]n1-c1ccccc1` [IMM-131, 5-chloro-2-phenyl-1,2-benz-isoselenazol-3(2H)-one], for which, in experiment [1] (setting [4]), the “Inhibitory rate of inward INa—Ca (%)” value came out at 15% and the “Inhibitory rate of outward INa—Ca (%)” value is given as 22%.

For `O=c1c2ccc(Cl)cc2[se]n1-c1cccnc1` [IMM-141, 6-chloro-2-(3-pyridyl)-1,2-benz-isoselenazol-3(2H)-one], the “Inhibitory rate of inward INa—Ca (%)” value in experiment [1] (setting [4]) is reported as 2%.

Take `O=c1c2cc(F)ccc2[se]n1-c1ccccc1` [IMM-130, 5-fluoro-2-phenyl-1,2-benz-isoselenazol-3(2H)-one]: in experiment [1] (setting [4]), the “Inhibitory rate of inward INa—Ca (%)” value was 43% and the “Inhibitory rate of outward INa—Ca (%)” value was 30%.

As for `N=C(N)SCCc1ccc(OCc2ccc([N+](=O)[O-])cc2)cc1` [KB-R7943, 2-[2-[4-(4-nitrobenzyloxy)phenyl]]isothiourea, reference compound], the “inhibitory ratio on INa—Ca at −80 mV” value in experiment [1] (1 μM) was found to be 22%; in experiment [1] (10 μM), 57%. The “inhibitory ratio on INa—Ca at +50 mV” value came to 29% in experiment [1] (1 μM) and 61% in experiment [1] (10 μM). In addition, the “selectivity of inhibition of outward versus inward INa—Ca” value is “without selectivity” in experiment [1] and “poor selectivity” in experiment [1] (listed as KB-R794).

Turning to `O=c1c2ccccc2[se]n1Cc1ccccn1` [IMM-058, 2-(2-pyridylmethyl)-1,2-benz-isoselenazol-3(2H)-one], in experiment [1] (setting [4]), the “Inhibitory rate of outward INa—Ca (%)” value is on record as 3%.
